Publication PMC7594025, “Synthesis, Docking, 3-D-Qsar, and Biological Assays of Novel Indole Derivatives Targeting Serotonin Transporter, Dopamine D2 Receptor, and Mao-A Enzyme: In the Pursuit for Potential Multitarget Directed Ligands” (Molecules, 2020)
Read-outs that look alike come from different tables or passages of the source.

Legend:
[1] = target: T1, SERT (Homo sapiens, UniProt P31645); assay: SERT competitive binding assay, [3H]-paroxetine, membranes from HEK-293 clonal cell line overexpressing SERT
T1 construct: purchased Perkin-Elmer (Boston, MA, USA) RBHSTM400UA; host or cells: HEK-293 clonal cell line
Experimental: To determine the binding of all compounds at SERT, competitive binding assays were performed according to previously reported procedures with some modifications. […] Control curve was performed with fluoxetine in the same experimental conditions. Non-specific binding was determined with 10 µM fluoxetine.
The IC50 and Ki values correspond to the results of three independent experiments, each in triplicate. All data are expressed as the mean ± SEM.

[2] = target: T2, D2 receptor (Homo sapiens, UniProt P14416); assay: D2 receptor competitive binding assay, [3H]-methylspiperone, membranes from CHO-K1 clonal cell line overexpressing D2 receptor; details: for Ki: 0.5 nM [3H]-methylspiperone, 2 h at 27 °C, mean ± SEM of three experiments, each in triplicate
T2 construct: purchased Perkin-Elmer (Boston, MA, USA) RBHD2CM400UA; host or cells: CHO-K1 clonal cell line
Experimental: To determine the binding of all compounds at D2 receptor, competitive binding assays were performed according to provider indications with some modifications. […] Radioactivity was counted as described before.

[3] = target: T3, rat MAO-A (Rattus norvegicus, UniProt P21396); assay: MAO-A inhibition, crude rat brain mitochondrial suspension, serotonin substrate, HPLC-ED; format: biochemical; details: 100 µM compound; serotonin 100 µM as substrate
T3 construct: using a crude rat brain mitochondrial suspension as a source of enzyme; from tissue; host or cells: rat brain (crude mitochondrial suspension)
T3 sequence (P21396 1-526): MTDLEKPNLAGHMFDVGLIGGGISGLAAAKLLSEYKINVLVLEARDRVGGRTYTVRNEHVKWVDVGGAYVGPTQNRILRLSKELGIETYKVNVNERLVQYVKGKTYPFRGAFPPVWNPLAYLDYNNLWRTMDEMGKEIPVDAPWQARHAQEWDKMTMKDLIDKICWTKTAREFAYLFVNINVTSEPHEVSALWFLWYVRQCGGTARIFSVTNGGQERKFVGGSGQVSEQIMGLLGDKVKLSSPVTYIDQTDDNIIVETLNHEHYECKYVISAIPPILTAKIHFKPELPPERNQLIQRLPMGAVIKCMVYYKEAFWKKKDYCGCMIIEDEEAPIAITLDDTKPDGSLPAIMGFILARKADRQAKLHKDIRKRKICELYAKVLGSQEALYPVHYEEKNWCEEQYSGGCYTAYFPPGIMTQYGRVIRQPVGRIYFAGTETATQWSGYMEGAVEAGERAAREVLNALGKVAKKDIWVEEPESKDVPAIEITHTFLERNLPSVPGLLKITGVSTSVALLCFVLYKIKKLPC
Experimental: The effects of the compounds on rat MAO-A activity were studied following a previously reported methodology, using a crude rat brain mitochondrial suspension as a source of enzyme. Serotonin (100 µM) was used as the selective substrate for MAO-A. This compound and its metabolite were detected by HPLC with electrochemical detection. As an exploratory evaluation, the percentage of MAO-A inhibition in the presence of 100 µM of the different compounds was determined, with the idea of evaluating in detail those compounds showing an inhibitory activity in the range of 70–100%.

[4] = 2 nM [3H]-paroxetine, 1 h at 27 °C, mean ± SEM of three experiments, each in triplicate, read-out: Ki SERT
[5] = SERT, experimental values used for CoMFA/CoMSIA (Table S3), read-out: Exp. pKi (converted)

T1 sequence (P31645 whole entry): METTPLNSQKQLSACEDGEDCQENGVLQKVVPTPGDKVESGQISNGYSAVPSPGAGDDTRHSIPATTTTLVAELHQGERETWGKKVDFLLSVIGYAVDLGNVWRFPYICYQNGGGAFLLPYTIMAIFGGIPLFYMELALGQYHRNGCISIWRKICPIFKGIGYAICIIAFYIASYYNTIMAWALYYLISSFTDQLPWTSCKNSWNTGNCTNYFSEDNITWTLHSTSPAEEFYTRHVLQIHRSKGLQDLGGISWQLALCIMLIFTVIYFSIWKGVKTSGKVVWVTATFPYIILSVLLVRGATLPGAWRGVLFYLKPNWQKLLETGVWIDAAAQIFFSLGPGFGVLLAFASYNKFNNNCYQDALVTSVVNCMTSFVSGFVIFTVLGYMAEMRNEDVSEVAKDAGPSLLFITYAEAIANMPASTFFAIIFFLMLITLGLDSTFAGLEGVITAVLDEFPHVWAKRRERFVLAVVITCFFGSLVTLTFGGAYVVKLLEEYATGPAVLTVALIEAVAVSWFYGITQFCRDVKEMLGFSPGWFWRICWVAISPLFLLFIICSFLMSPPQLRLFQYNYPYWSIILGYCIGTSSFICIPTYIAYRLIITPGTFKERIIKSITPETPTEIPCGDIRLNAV
T2 sequence (P14416 whole entry): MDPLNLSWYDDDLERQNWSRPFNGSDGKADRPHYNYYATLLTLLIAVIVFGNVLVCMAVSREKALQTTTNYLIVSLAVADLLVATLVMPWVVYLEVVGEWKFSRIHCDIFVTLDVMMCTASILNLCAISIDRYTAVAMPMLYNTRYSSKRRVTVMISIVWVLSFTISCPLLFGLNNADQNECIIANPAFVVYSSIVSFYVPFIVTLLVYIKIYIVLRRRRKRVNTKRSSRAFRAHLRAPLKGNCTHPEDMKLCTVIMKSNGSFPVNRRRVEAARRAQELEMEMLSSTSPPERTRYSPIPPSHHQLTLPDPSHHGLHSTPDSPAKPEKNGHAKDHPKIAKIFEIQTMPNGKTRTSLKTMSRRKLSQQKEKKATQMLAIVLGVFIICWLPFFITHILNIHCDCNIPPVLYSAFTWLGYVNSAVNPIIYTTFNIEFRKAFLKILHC

SMILES	Ki [1, 4]	Ki [2]	inhibition at 100 µM [3]	melting point	Ki [1, 5]	D2/SERT ratio ([2]; ratio of Ki at D2 receptor to Ki at SERT)
O=C(CN1CCN(CCCc2c[nH]c3ccc(F)cc23)CC1)Nc1cc(C(=O)NCCN2CCOCC2)ccc1F [Compound 13b, 4-Fluoro-3-(2-{4-[3-(5-fluor-1H-3-indolyl)-propyl]-1-piperazinyl}-acetylamino)-N-(2-morpholin-4-yl-ethyl) Benzamide]	23.8 ± 0.46 nM	3100 ± 42 nM	42%	92.2 to 93.9 °C		
O=C(CN1CCN(CCCc2c[nH]c3ccc(Br)cc23)CC1)N1CCOc2ccccc21 [Compound 7m, 1-(2,3-Dihydro-benzo[b][1,4]oxazin-4-yl)-2-{4-[3-(5-bromo-1H-3-indolyl)-propyl]-1-piperazinyl} ethanamide]	50.2 ± 2.47 nM	593 ± 62 nM	30%	90.5 to 92.4 °C	50.1 nM	
O=C(CN1CCN(CCCc2c[nH]c3ccc(F)cc23)CC1)Nc1ccc(F)c(C(=O)NCCN2CCOCC2)c1 [Compound 13c, 2-Fluoro-5-(2-{4-[3-(5-fluor-1H-3-indolyl)-propyl]-1-piperazinyl}-acetylamino)-N-(2-morpholin-4-yl-ethyl) Benzamide]	6.83 ± 0.19 nM	593 ± 30.2 nM	28%	91.8 to 93.2 °C		
O=C(CN1CCN(CCCc2c[nH]c3ccc(F)cc23)CC1)N1CCOc2ccc(F)cc21 [Compound 7i, 1-(6-Fluoro-2,3-dihydro-benzo[b][1,4]oxazin-4-yl)-2-{4-[3-(5-fluoro-1H-3-indolyl)-propyl]-1-piperazinyl} ethanamide]	7.51 ± 0.12 nM	1680 ± 79 nM	0%	166.8 to 168.1 °C		
O=C(CN1CCN(CCCc2c[nH]c3ccc(F)cc23)CC1)N1CCOc2cc(F)ccc21 [Compound 7h, 1-(7-Fluoro-2,3-dihydro-benzo[b][1,4]oxazin-4-yl)-2-{4-[3-(5-fluoro-1H-3-indolyl)-propyl]-1-piperazinyl} ethanamide]	7.61 ± 0.02 nM	2320 ± 163 nM	0%	168.1 to 169.9 °C		
O=C(CN1CCN(CCCc2c[nH]c3ccccc23)CC1)N1CCOc2ccccc21 [Compound 7a, 1-(2,3-Dihydro-benzo[b][1,4]oxazin-4-yl)-2-{4-[3-(1H-3-indolyl)-propyl]-1-piperazinyl} ethanamide]	307 ± 30.5 nM	4840 ± 68 nM	27%	124.3 to 125.8 °C		
COc1ccc2c(c1)N(C(=O)CN1CCN(CCCc3c[nH]c4ccc(F)cc34)CC1)CCO2 [Compound 7l, 1-(6-Methoxy-2,3-dihydro-benzo[b][1,4]oxazin-4-yl)-2-{4-[3-(5-fluoro-1H-3-indolyl)-propyl]-1-piperazinyl} ethanamide]	12.6 ± 1.52 nM	3320 ± 256 nM	52%	94.5 to 97.3 °C		
O=C(CN1CCN(CCCc2c[nH]c3ccccc23)CC1)N1CCOc2ccc(Br)cc21 [Compound 7e, 1-(6-Bromo-2,3-dihydro-benzo[b][1,4]oxazin-4-yl)-2-{4-[3-(1H-3-indolyl)-propyl]-1-piperazinyl} ethanamide]	36.6 ± 0.55 nM	910 ± 263 nM	38%	132.7 to 134.1 °C		
O=C(CN1CCN(CCCc2c[nH]c3ccccc23)CC1)N1CCOc2ccc(Cl)cc21 [Compound 7d, 1-(6-Chloro-2,3-dihydro-benzo[b][1,4]oxazin-4-yl)-2-{4-[3-(1H-3-indolyl)-propyl]-1-piperazinyl} ethanamide]	81.4 ± 4.97 nM	1260 ± 182 nM	18%	135.3 to 136.1 °C		
O=C(CN1CCN(CCCc2c[nH]c3ccccc23)CC1)Nc1ccc(F)cc1C(=O)NCCN1CCOCC1 [Compound 13l, 5-Fluoro-2-(2-{4-[3-(1H-3-indolyl)-propyl]-1-piperazinyl}-acetylamino)-N-(2-morpholin-4-yl-ethyl) Benzamide]	52.2 ± 3.24 nM	2000 ± 34 nM	34%	68.1 to 69.6 °C		
O=C(CN1CCN(CCCc2c[nH]c3ccc(F)cc23)CC1)N1CCOc2ccccc21 [Compound 7g, 1-(2,3-Dihydro-benzo[b][1,4]oxazin-4-yl)-2-{4-[3-(5-fluoro-1H-3-indolyl)-propyl]-1-piperazinyl} ethanamide]	9.63 ± 0.31 nM	2320 ± 64 nM	41%	168.4 to 171.3 °C		
O=C(CN1CCN(CCCc2c[nH]c3ccccc23)CC1)N1CCOc2cc(F)ccc21 [Compound 7b, 1-(7-Fluoro-2,3-dihydro-benzo[b][1,4]oxazin-4-yl)-2-{4-[3-(1H-3-indolyl)-propyl]-1-piperazinyl} ethanamide]	181 ± 20 nM	4740 ± 131 nM	43%	124 to 125.3 °C		
O=C(CN1CCN(CCCc2c[nH]c3ccccc23)CC1)N1CCOc2ccc(F)cc21 [Compound 7c, 1-(6-Fluoro-2,3-dihydro-benzo[b][1,4]oxazin-4-yl)-2-{4-[3-(1H-3-indolyl)-propyl]-1-piperazinyl} ethanamide]	68.8 ± 1.02 nM	2390 ± 163 nM	40%	123.8 to 125.1 °C		
O=C(CN1CCN(CCCc2c[nH]c3ccc(F)cc23)CC1)N1CCOc2ccc(Br)cc21 [Compound 7k, 1-(6-Bromo-2,3-dihydro-benzo[b][1,4]oxazin-4-yl)-2-{4-[3-(5-fluoro-1H-3-indolyl)-propyl]-1-piperazinyl} ethanamide]	5.63 ± 0.82 nM	1040 ± 232 nM	20%	102.8 to 103.9 °C	5.62 nM	
COc1ccc2c(c1)N(C(=O)CN1CCN(CCCc3c[nH]c4ccccc34)CC1)CCO2 [Compound 7f, 1-(6-Methoxy-2,3-dihydro-benzo[b][1,4]oxazin-4-yl)-2-{4-[3-(1H-3-indolyl)-propyl]-1-piperazinyl} ethanamide]	412 ± 57.9 nM	4410 ± 647 nM	58%	123.6 to 125.1 °C		
O=C(CN1CCN(CCCc2c[nH]c3ccc(F)cc23)CC1)N1CCOc2ccc(Cl)cc21 [Compound 7j, 1-(6-Chloro-2,3-dihydro-benzo[b][1,4]oxazin-4-yl)-2-{4-[3-(5-fluoro-1H-3-indolyl)-propyl]-1-piperazinyl} ethanamide]	12.3 ± 2.31 nM	902 ± 4 nM	20%	120.5 to 122.8 °C		
O=C(CN1CCN(CCCc2c[nH]c3ccc(Br)cc23)CC1)Nc1ccc(F)cc1C(=O)NCCN1CCOCC1 [Compound 13h, 5-Fluoro-2-(2-{4-[3-(5-bromo-1H-3-indolyl)-propyl]-1-piperazinyl}-acetylamino)-N-(2-morpholin-4-yl-ethyl) Benzamide]	200 ± 14.5 nM	4700 ± 168 nM	9.4%	73.8 to 74.7 °C		
O=C(CN1CCN(CCCc2c[nH]c3ccccc23)CC1)Nc1ccc(F)c(C(=O)NCCN2CCOCC2)c1 [Compound 13k, 2-Fluoro-5-(2-{4-[3-(1H-3-indolyl)-propyl]-1-piperazinyl}-acetylamino)-N-(2-morpholin-4-yl-ethyl) Benzamide]	26.8 ± 0.91 nM	4170 ± 335 nM	34%	69.7 to 71.5 °C		
O=C(CN1CCN(CCCc2c[nH]c3ccc(Br)cc23)CC1)Nc1cc(F)ccc1C(=O)NCCN1CCOCC1 [Compound 13e, 4-Fluoro-2-(2-{4-[3-(5-bromo-1H-3-indolyl)-propyl]-1-piperazinyl}-acetylamino)-N-(2-morpholin-4-yl-ethyl) Benzamide]	223 ± 16.4 nM	5619 ± 31 nM	39%	92.1 to 93.8 °C		
O=C(CN1CCN(CCCc2c[nH]c3ccc(Br)cc23)CC1)N1CCOc2cc(F)ccc21 [Compound 7n, 1-(7-Fluoro-2,3-dihydro-benzo[b][1,4]oxazin-4-yl)-2-{4-[3-(5-bromo-1H-3-indolyl)-propyl]-1-piperazinyl} ethanamide]	84.4 nM	307 ± 6 nM	23%	96.1 to 98.1 °C		3.6
